Assay results: publication PMC11057203, “Synergy between Winter Flounder antimicrobial peptides” (npj Antimicrobials and Resistance, 2023)
Non-standard residues stand in square brackets, D forms with d. Residues, ends and D or L forms follow the SMILES beside them.

Columns and labels:
EMRSA-15 NCTC 13616 = format: cell-based, Staphylococcus aureus
Experimental: (§1) Synergy was measured using standard microdilution Chequerboard assays under the same conditions as the MICs with RPMI140 + 5% FBS used alongside MHB[18]. Twofold dilution series of each peptide or antibiotic were prepared in separate 96 well plates and then combined into one before addition of bacteria. The growth/no growth interface was determined using the same definition as the MIC. The fractional inhibitory concentration was calculated from the most synergistic well on the plate for three independent repeats, and presented as above. MICs were determined on the same plates as the FICs to increase reproducibility.

P. aeruginosa RP73 = format: cell-based, Pseudomonas aeruginosa
Experimental: as §1

A. baumannii ATCC 17978 = assay: Galleria mellonella burn wound infection model; format: in vivo; conditions: 5 mg/kg, topical 1 h after infection; n = 30 larvae; burn and infection untreated 46.0%
Experimental: Prior to use, G. mellonella were surface decontaminated by immersion in 50% ethanol for 20 s and allowed to dry. All assays were performed on three separate occasions using a group size of 10 larvae; the larvae were kept in separate petri dishes and in the dark in a static incubator at 37 °C for the duration of the experiment. Fresh agar plates of A. baumannii ATCC 17978 were prepared immediately prior to the experiment. Larvae were burnt using the flat head of a nail which was heated in a blue Bunsen burner flame until red hot, cooled for 15 s and superficially applied for 2 s to generate a 2 mm^2 burn. Larvae were infected with a single colony of A. baumannii ATCC 17978 applied directly to the burn site. Treatment was applied topically 1 h after infection in a volume of 5 µl or sterile phosphate buffered saline as a control. Survival was monitored over 96 h.

[1] = tested on: Pseudomonas aeruginosa RP73; format: cell-based; conditions: Supplementary Table 1; Mueller-Hinton broth; unit inferred
Experimental: (§3) The antibacterial activity of the peptides was assessed through a modified two-fold broth microdilution assay with modal MICs generated from at least three biological replicate experiments[37]. The method broadly followed EUCAST methodology, with non-cation adjusted Mueller Hinton replacing cation-adjusted Mueller Hinton. Peptides and antibiotics were diluted in a two-fold dilution in media down a 96 well plate. Bacteria were then added, back-diluted from an overnight culture, at a starting concentration of 5 × 10^5 CFU/ml. Plates were incubated, static at 37 °C, for 20 h and the OD600 was determined using a Clariostar plate reader (BMG Labtech).

P. aeruginosa CAS2 = assay: Broth microdilution MIC; format: cell-based, Pseudomonas aeruginosa; conditions: Supplementary Table 1; Mueller-Hinton broth; unit not given
Experimental: (§2) The antibacterial activity of the peptides was assessed through a modified two-fold broth microdilution assay with modal MICs generated from at least three biological replicate experiments. The method broadly followed EUCAST methodology, with non-cation adjusted Mueller Hinton replacing cation-adjusted Mueller Hinton. Peptides and antibiotics were diluted in a two-fold dilution in media down a 96 well plate. Bacteria were then added, back-diluted from an overnight culture, at a starting concentration of 5 × 10^5 CFU/ml. Plates were incubated, static at 37 °C, for 20 h and the OD600 was determined using a Clariostar plate reader (BMG Labtech).

P. aeruginosa CAS3 = assay: Broth microdilution MIC; format: cell-based, Pseudomonas aeruginosa; conditions: Supplementary Table 1; Mueller-Hinton broth; unit not given
Experimental: as §2

P. aeruginosa 372261 = assay: Broth microdilution MIC; format: cell-based, Pseudomonas aeruginosa; conditions: Supplementary Table 1; Mueller-Hinton broth; unit not given
Experimental: as §2

P. aeruginosa GH12 = assay: Broth microdilution MIC; format: cell-based, Pseudomonas aeruginosa; conditions: Supplementary Table 1; Mueller-Hinton broth; unit not given
Experimental: as §2

P. aeruginosa CAS4 = assay: Broth microdilution MIC; format: cell-based, Pseudomonas aeruginosa; conditions: Supplementary Table 1; Mueller-Hinton broth; unit not given
Experimental: as §2

Klebsiella pneumoniae M6 = format: cell-based; conditions: Supplementary Table 1; Mueller-Hinton broth; unit inferred
Experimental: as §3

[2] = tested on: VR Enterococcus faecium NCTC 12204; format: cell-based; conditions: Supplementary Table 1; Mueller-Hinton broth; unit inferred
Experimental: as §3

[3] = tested on: Acinetobacter baumannii ATCC 17978; format: cell-based; conditions: Supplementary Table 1; Mueller-Hinton broth; unit inferred
Experimental: as §3

[4] = tested on: VR Enterococcus faecalis NCTC 12201; format: cell-based; conditions: Supplementary Table 1; Mueller-Hinton broth; unit inferred
Experimental: as §3

[5] = tested on: Staphylococcus aureus NCTC 6571; assay: Broth microdilution MIC; format: cell-based; conditions: Supplementary Table 1; Mueller-Hinton broth; unit not given
Experimental: as §2

[6] = tested on: Staphylococcus aureus 1199B; assay: Broth microdilution MIC; format: cell-based; conditions: Supplementary Table 1; Mueller-Hinton broth; unit not given
Experimental: as §2

[7] = tested on: Staphylococcus aureus USA300; assay: Broth microdilution MIC; format: cell-based; conditions: Supplementary Table 1; Mueller-Hinton broth; unit not given
Experimental: as §2

[8] = tested on: VS Enterococcus faecalis NCTC 775; format: cell-based; conditions: Supplementary Table 1; Mueller-Hinton broth; unit not given
[9] = tested on: Escherichia coli NCTC 12923; format: cell-based; conditions: Supplementary Table 1; Mueller-Hinton broth; unit inferred
Experimental: as §3

[10] = tested on: EMR Staphylococcus aureus-15 NCTC 13616; format: cell-based; conditions: Supplementary Table 1; Mueller-Hinton broth; unit inferred
Experimental: as §3

[11] = tested on: Acinetobacter baumannii AYE; format: cell-based; conditions: Supplementary Table 1; Mueller-Hinton broth; unit inferred
Experimental: as §3

[12] = tested on: Pseudomonas aeruginosa NCTC 13437; format: cell-based; conditions: Supplementary Table 1; Mueller-Hinton broth; unit inferred
Experimental: as §3

[13] = tested on: Klebsiella pneumoniae NCTC 13368; format: cell-based; conditions: Supplementary Table 1; Mueller-Hinton broth; unit inferred
Experimental: as §3

[14] = tested on: Pseudomonas aeruginosa PAO1; format: cell-based; conditions: Supplementary Table 1; Mueller-Hinton broth; unit inferred
Experimental: as §3

Gram-negative bacteria = assay: Broth microdilution MIC, Gram-negative panel; format: cell-based; conditions: Mueller–Hinton broth; span of Table 2 Gram-negative isolates
Experimental: as §2

Structure (SMILES): CC[C@@H](C)[C@@H](NC(=O)[C@@H](CCCNC(=N)N)NC(=O)[C@@H](CCCNC(=N)N)NC(=O)[C@@H](CC(C)C)NC(=O)[C@H](N)Cc1c[nH]c2ccccc12)C(=O)NCC(=O)N[C@H](CCCCN)C(=O)NCC(=O)N[C@@H](C(=O)N[C@H](CCCCN)C(=O)N[C@@H](C(=O)N[C@@H](C(=O)NCC(=O)NCC(=O)N[C@H](C)C(=O)N[C@H](C)C(=O)N[C@H](CC(C)C)C(=O)N[C@H](CC(=O)O)C(=O)N[C@H](Cc1c[nH]cn1)C(=O)N[C@H](CC(C)C)C(N)=O)[C@H](C)CC)[C@H](C)CC)C(C)C [D-WF1a] (H-[dW][dL][dR][dR][dI]G[dK]G[dV][dK][dI][dI]GG[dA][dA][dL][dD][dH][dL]-NH2; N-terminus assumed)
- D-WF1a MIC (alone) (EMRSA-15 NCTC 13616): 512 µg/mL
- D-WF1a MIC (alone) (P. aeruginosa RP73): 512 µg/mL

Structure (SMILES): C[C@@H](O)[C@H]1C(=O)N2C(C(=O)O)=C(S[C@@H]3CN[C@H](C(=O)N(C)C)C3)[C@H](C)[C@H]12 [Meropenem]
- Survival % @ 96 h (A. baumannii ATCC 17978): 70.0%

Structure (SMILES): CC(C)C[C@@H](NC(=O)[C@@H](Cc1ccc(O)cc1)NC(=O)[C@@H](Cc1c[nH]cn1)NC(=O)[C@H](NC(=O)[C@@H](CC(C)C)NC(=O)[C@@H](C)NC(=O)[C@@H](C)NC(=O)[C@@H](CCCNC(=N)N)NC(=O)CNC(=O)[C@H](NC(=O)[C@@H](Cc1c[nH]cn1)NC(=O)[C@@H](CCCNC(=N)N)NC(=O)CNC(=O)[C@H](NC(=O)[C@@H](Cc1c[nH]cn1)NC(=O)[C@@H](C)NC(=O)[C@@H](C)NC(=O)[C@@H](CCCNC(=N)N)NC(=O)[C@@H](CCCNC(=N)N)NC(=O)[C@@H](Cc1ccccc1)NC(=O)[C@@H](Cc1ccccc1)NC(=O)[C@@H](CO)NC(=O)CNC(=O)[C@@H](Cc1c[nH]c2ccccc12)NC(=O)CN)C(C)C)C(C)C)[C@H](C)O)C(N)=O [D-pleurocidin-KR] (H-G[dW]G[dS][dF][dF][dR][dR][dA][dA][dH][dV]G[dR][dH][dV]G[dR][dA][dA][dL][dT][dH][dY][dL]-NH2; N-terminus assumed)
- Pleurocidin MIC (analogue alone) (EMRSA-15 NCTC 13616): 2 µg/ml
- Pleurocidin MIC (analogue alone) (P. aeruginosa RP73): 8-16 µg/ml

Structure (SMILES): CC(C)C[C@@H](NC(=O)[C@@H](Cc1ccc(O)cc1)NC(=O)[C@@H](Cc1c[nH]cn1)NC(=O)[C@H](NC(=O)[C@@H](CC(C)C)NC(=O)[C@@H](C)NC(=O)[C@@H](C)NC(=O)[C@@H](CCCCN)NC(=O)CNC(=O)[C@H](NC(=O)[C@@H](Cc1c[nH]cn1)NC(=O)[C@@H](CCCCN)NC(=O)CNC(=O)[C@H](NC(=O)[C@@H](Cc1c[nH]cn1)NC(=O)[C@@H](C)NC(=O)[C@@H](C)NC(=O)[C@@H](CCCCN)NC(=O)[C@@H](CCCCN)NC(=O)[C@@H](Cc1ccccc1)NC(=O)[C@@H](Cc1ccccc1)NC(=O)[C@@H](CO)NC(=O)CNC(=O)[C@@H](Cc1c[nH]c2ccccc12)NC(=O)CN)C(C)C)C(C)C)[C@H](C)O)C(N)=O [D-pleurocidin] (H-G[dW]G[dS][dF][dF][dK][dK][dA][dA][dH][dV]G[dK][dH][dV]G[dK][dA][dA][dL][dT][dH][dY][dL]-NH2; N-terminus assumed)
- Pleurocidin MIC (analogue alone) (EMRSA-15 NCTC 13616): 8-16 µg/ml
- Antimicrobial activity of D-enantiomers, P. aeruginosa RP73 [1]: 16 µg/mL
- Pleurocidin MIC (analogue alone) (P. aeruginosa RP73): 8-16 µg/ml
- Antimicrobial activity of D-enantiomers, P. aeruginosa CAS2 (P. aeruginosa CAS2): 8
- Antimicrobial activity of D-enantiomers, P. aeruginosa CAS3 (P. aeruginosa CAS3): 4
- Antimicrobial activity of D-enantiomers, P. aeruginosa 372261 (P. aeruginosa 372261): 4
- Antimicrobial activity of D-enantiomers, P. aeruginosa GH12 (P. aeruginosa GH12): 4
- Antimicrobial activity of D-enantiomers, P. aeruginosa CAS4 (P. aeruginosa CAS4): 8
- Antimicrobial activity of D-enantiomers, Klebsiella pneumoniae M6 (Klebsiella pneumoniae M6): 2 µg/mL
- Antimicrobial activity of D-enantiomers, VR Enterococcus faecium NCTC 12204 [2]: 16 µg/mL
- Antimicrobial activity of D-enantiomers, Acinetobacter baumannii ATCC 17978 [3]: 1 µg/mL
- Antimicrobial activity of D-enantiomers, VR Enterococcus faecalis NCTC 12201 [4]: 64 µg/mL
- Antimicrobial activity of D-enantiomers, Staphylococcus aureus NCTC 6571 [5]: 16
- Antimicrobial activity of D-enantiomers, Staphylococcus aureus 1199B [6]: 16
- Antimicrobial activity of D-enantiomers, Staphylococcus aureus USA300 [7]: 32
- Antimicrobial activity of D-enantiomers, VS Enterococcus faecalis NCTC 775 [8]: 16
- Antimicrobial activity of D-enantiomers, Escherichia coli NCTC 12923 [9]: 1 µg/mL
- Antimicrobial activity of D-enantiomers, EMR Staphylococcus aureus-15 NCTC 13616 [10]: 16 µg/mL
- Antimicrobial activity of D-enantiomers, Acinetobacter baumannii AYE [11]: 2 µg/mL
- Antimicrobial activity of D-enantiomers, Pseudomonas aeruginosa NCTC 13437 [12]: 8 µg/mL
- Antimicrobial activity of D-enantiomers, Klebsiella pneumoniae NCTC 13368 [13]: 2 µg/mL
- Antimicrobial activity of D-enantiomers, Pseudomonas aeruginosa PAO1 [14]: 2 µg/mL

Structure (SMILES): C[C@@H](O)[C@H]1C(=O)N2C(C(=O)O)=C(SCCN=CN)C[C@H]12 [Imipenem]
- Survival % @ 96 h (A. baumannii ATCC 17978): 70.0%

Structure (SMILES): CNC(C)C1CCC(N)C(OC2C(N)CC(N)C(OC3OCC(C)(O)C(NC)C3O)C2O)O1 (stereo not drawn) [Gentamicin]
- Survival % @ 96 h (A. baumannii ATCC 17978): 86.7%

Structure (SMILES): CC[C@H](C)[C@H](NC(=O)[C@H](CCCNC(=N)N)NC(=O)[C@H](CCCNC(=N)N)NC(=O)[C@H](CC(C)C)NC(=O)[C@H](Cc1c[nH]c2ccccc12)NC(=O)[C@H](CCCCN)NC(=O)[C@H](CCCNC(=N)N)NC(=O)[C@H](CCCCN)NC(=O)[C@H](CCCNC(=N)N)NC(=O)[C@H](CCCNC(=N)N)NC(=O)CN)C(=O)NCC(=O)N[C@@H](CCCCN)C(=O)NCC(=O)N[C@H](C(=O)N[C@@H](CCCCN)C(=O)N[C@H](C(=O)N[C@H](C(=O)NCC(=O)NCC(=O)N[C@@H](C)C(=O)N[C@@H](C)C(=O)N[C@@H](CC(C)C)C(=O)N[C@@H](CC(=O)O)C(=O)N[C@@H](Cc1c[nH]cn1)C(=O)N[C@@H](CC(C)C)C(N)=O)[C@@H](C)CC)[C@@H](C)CC)C(C)C [WF1a-1] (H-GRRKRKWLRRIGKGVKIIGGAALDHL-NH2)
- MICs against Gram-negative isolates (range over panel) (Gram-negative bacteria): 0.25 to 8 µg/mL
